What was measured:
Experiment in all cases: relative viability (nuclei count vs DMSO), 5 days (fraction); higher = more cells survive
IPA-3 + Foretinib = compound: C1=CC=C2C(=C1)C=CC(=C2SSC3=C(C=CC4=CC=CC=C43)O)O [IPA-3] + COc1cc2c(Oc3ccc(NC(=O)C4(C(=O)Nc5ccc(F)cc5)CC4)cc3F)ccnc2cc1OCCCN1CCOCC1 [Foretinib] (partner 0.25 µM)
Outline: (§1)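 Lung cancer cell lines, seeded in 1536-well plates, were treated the following day by pin tool with a single drug or with five library-drug doses (not always all listed) in √10 steps on top of a fixed anchor-drug dose. Cells were fixed and nuclei stained in one step after 5 days, and nuclei were counted. Relative viability is the nuclei count for treated wells divided by that for vehicle wells, reported as medians of duplicate plates.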

IPA-3 + Lapatinib = compound: C1=CC=C2C(=C1)C=CC(=C2SSC3=C(C=CC4=CC=CC=C43)O)O [IPA-3] + CS(=O)(=O)CCNCc1ccc(-c2ccc3ncnc(Nc4ccc(OCc5cccc(F)c5)c(Cl)c4)c3c2)o1 [Lapatinib] (partner 2 µM)
Outline: as §1

Doramapimod + Tozasertib = compound: Cc1ccc(-n2nc(C(C)(C)C)cc2NC(=O)Nc2ccc(OCCN3CCOCC3)c3ccccc23)cc1 [Doramapimod] + Cc1cc(Nc2cc(N3CCN(C)CC3)nc(Sc3ccc(NC(=O)C4CC4)cc3)n2)n[nH]1 [Tozasertib] (partner 0.1 µM)
Outline: as §1

Doramapimod + Decitabine = compound: Cc1ccc(-n2nc(C(C)(C)C)cc2NC(=O)Nc2ccc(OCCN3CCOCC3)c3ccccc23)cc1 [Doramapimod] + Nc1ncn([C@H]2C[C@H](O)[C@@H](CO)O2)c(=O)n1 [Decitabine] (partner 2 µM)
Outline: as §1

Row | Cell Line | relative viability (IPA-3 + Foretinib; first compound 0.2 µM) | relative viability (IPA-3 + Foretinib; first compound 0.6325 µM) | relative viability (IPA-3 + Foretinib; first compound 2 µM) | relative viability (IPA-3 + Foretinib; first compound 6.325 µM) | relative viability (IPA-3 + Foretinib; first compound 20 µM) | relative viability (IPA-3 + Lapatinib; first compound 0.2 µM) | relative viability (IPA-3 + Lapatinib; first compound 0.6325 µM) | relative viability (IPA-3 + Lapatinib; first compound 2 µM) | relative viability (IPA-3 + Lapatinib; first compound 6.325 µM) | relative viability (IPA-3 + Lapatinib; first compound 20 µM) | relative viability (Doramapimod + Tozasertib; first compound 0.02 µM) | relative viability (Doramapimod + Tozasertib; first compound 0.06325 µM) | relative viability (Doramapimod + Tozasertib; first compound 0.2 µM) | relative viability (Doramapimod + Tozasertib; first compound 0.6325 µM) | relative viability (Doramapimod + Tozasertib; first compound 2 µM) | relative viability (Doramapimod + Decitabine; first compound 0.02 µM) | relative viability (Doramapimod + Decitabine; first compound 0.06325 µM) | relative viability (Doramapimod + Decitabine; first compound 0.2 µM) | relative viability (Doramapimod + Decitabine; first compound 0.6325 µM) | relative viability (Doramapimod + Decitabine; first compound 2 µM)
1 | NCI-H1650 | 1.27 | 1.29 | 1.39 | 1.03 | 1.45 | 0.925 | 0.176 | 0.802 | 0.893 | 0.774 | 0.416 | 0.408 | 0.395 | 0.382 | 0.357 | 0.412 | 0.409 | 0.515 | 0.409 | 0.283
2 | NCI-H1651 | 0.981 | 0.717 | 0.967 | 0.952 | 1.04 | 1.18 |  | 0.863 | 0.852 | 0.931 | 0.726 | 0.703 | 0.75 | 0.719 | 0.608 | 0.632 | 0.678 | 0.608 | 0.569 | 0.608
3 | NCI-H1666 | 0.988 | 0.926 | 0.976 | 1.01 | 1.16 | 0.77 | 0.673 | 0.674 | 0.786 | 0.66 | 0.642 | 0.687 | 0.641 | 0.624 | 0.597 | 0.768 | 0.792 | 0.83 | 0.659 | 0.755
4 | NCI-H1734 | 0.972 | 0.803 | 0.845 | 0.92 | 0.934 | 1.19 | 0.969 | 1.12 | 0.982 | 0.892 | 0.273 | 0.267 | 0.229 | 0.284 | 0.235 | 0.476 | 0.47 | 0.489 | 0.51 | 0.363
5 | NCI-H1755 | 0.923 | 0.884 | 0.879 | 0.85 | 0.952 | 1.11 | 0.988 | 1.05 | 1.06 | 1.17 | 0.581 | 0.58 | 0.597 | 0.611 | 0.469 | 0.778 | 0.753 | 0.711 | 0.666 | 0.706
6 | NCI-H1793 | 0.918 | 0.67 | 0.656 | 0.757 | 1.05 | 0.834 | 0.539 | 0.909 | 0.776 | 0.702 | 0.27 | 0.319 | 0.319 | 0.352 | 0.26 | 0.523 | 0.449 | 0.526 | 0.483 | 0.392
7 | NCI-H1915 | 1.13 | 1.06 | 1.08 | 1.11 | 1.11 | 1.06 | 0.968 | 0.934 | 0.941 | 1.02 | 0.438 | 0.464 | 0.489 | 0.459 | 0.384 | 0.24 | 0.256 | 0.256 | 0.261 | 0.255
8 | NCI-H1944 | 1.05 | 0.856 | 0.879 | 0.938 | 0.928 | 0.803 | 0.763 | 0.814 | 1.04 | 0.791 | 0.234 | 0.229 | 0.235 | 0.256 | 0.235 | 0.459 | 0.491 | 0.447 | 0.423 | 0.414
9 | NCI-H1975 | 1.01 | 0.887 | 1.03 | 0.873 | 0.935 | 1.18 | 0.888 | 0.964 | 0.889 | 0.927 | 0.802 | 0.729 | 0.937 | 0.817 | 0.639 | 0.384 | 0.451 | 0.335 | 0.386 | 0.301
10 | NCI-H1993 | 0.833 | 0.654 | 0.813 | 0.776 | 0.728 | 0.829 | 0.742 | 0.767 | 0.909 | 0.738 | 0.688 | 0.564 | 0.622 | 0.598 | 0.565 | 0.537 | 0.578 | 0.511 | 0.668 | 0.53
11 | NCI-H2009 | 1.32 | 1.15 | 1.23 | 1.16 | 1.29 | 1.2 | 0.899 | 0.832 | 0.853 | 0.577 | 0.727 | 0.799 | 0.696 | 0.663 | 0.556 | 0.35 | 0.408 | 0.45 | 0.384 | 0.329
12 | NCI-H2023 | 0.856 | 0.666 | 0.995 | 0.853 | 1.1 | 0.91 | 0.711 | 0.774 | 0.925 | 0.832 | 0.333 | 0.352 | 0.3 | 0.304 | 0.247 | 0.233 | 0.211 | 0.263 | 0.218 | 0.216
13 | NCI-H2085 | 0.948 | 0.824 | 1.28 | 0.949 | 1.04 | 0.931 | 0.723 | 0.741 | 0.712 | 0.825 | 0.882 | 0.913 | 0.852 | 0.84 | 0.796 | 0.612 | 0.526 | 0.563 | 0.584 | 0.56
14 | NCI-H2087 | 1.26 | 1.12 | 1.05 | 1.03 | 1.18 | 0.832 | 0.987 | 0.982 | 1.06 | 0.811 | 0.32 | 0.308 | 0.253 | 0.223 | 0.233 | 0.286 | 0.206 | 0.277 | 0.232 | 0.201
15 | NCI-H2126 | 1.21 | 1.23 | 0.904 | 1.17 | 1.18 | 0.792 | 0.76 | 0.771 | 0.75 | 0.792 | 0.843 | 0.835 | 0.812 | 0.926 | 0.777 | 0.561 | 0.57 | 0.543 | 0.614 | 0.55
16 | NCI-H2170 | 1.03 | 0.942 | 1.04 | 0.948 | 1.13 | 0.269 | 0.259 | 0.274 | 0.274 | 0.267 | 0.717 | 0.611 | 0.824 | 0.636 | 0.6 | 0.472 | 0.459 | 0.483 | 0.518 | 0.469
